The text below walks through data of US9045556B2, “Therapeutic agent for cancer” (NEC Corporation, priority 2007, dated 2015).

The series relates to EG7 cells.

With `CC[C@H](C)[C@H](NC(=O)[C@@H](NC(=O)[C@@H](N)CO)[C@@H](C)CC)C(=O)N[C@@H](CC(N)=O)C(=O)N[C@@H](Cc1ccccc1)C(=O)N[C@@H](CCC(=O)O)C(=O)N[C@@H](CCCCN)C(=O)N[C@@H](CC(C)C)C(=O)O` [OVA-I peptide], the “cytotoxic activity of splenocytes against EG7” value is reported as “only low cytotoxic activity was induced”.
